For one test, the target named is T1, MstG (Aspergillus niger, UniProt A2QKT1).
T1 construct: gene An05g01290; also called pRS426H7), expressed in S. cerevisiae EBY.VW4000 hexose transporter null mutant, whole-cell uptake
T1 sequence (A2QKT1 1-542): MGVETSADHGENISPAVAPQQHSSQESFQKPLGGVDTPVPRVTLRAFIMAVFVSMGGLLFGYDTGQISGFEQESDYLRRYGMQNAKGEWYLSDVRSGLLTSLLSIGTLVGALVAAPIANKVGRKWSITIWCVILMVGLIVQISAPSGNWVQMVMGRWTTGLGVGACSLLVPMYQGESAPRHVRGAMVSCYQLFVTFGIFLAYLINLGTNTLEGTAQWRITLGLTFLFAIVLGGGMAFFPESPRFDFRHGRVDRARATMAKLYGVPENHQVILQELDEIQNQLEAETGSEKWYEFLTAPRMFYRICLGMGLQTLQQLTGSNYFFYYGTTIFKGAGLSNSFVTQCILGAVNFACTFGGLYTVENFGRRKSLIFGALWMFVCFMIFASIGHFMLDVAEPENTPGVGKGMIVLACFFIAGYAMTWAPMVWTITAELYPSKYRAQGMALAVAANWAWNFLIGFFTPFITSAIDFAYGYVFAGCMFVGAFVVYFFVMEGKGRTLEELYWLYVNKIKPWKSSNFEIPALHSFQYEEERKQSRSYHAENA
In words: competition of […]-glucose uptake in yeast cells. It is filed as cell-based. The settings on record: read-out: % inhibition at 10 mM.

A further test has as its target T2, MstH (Aspergillus niger, UniProt A5ABZ0).
T2 construct: gene An15g03940; also called pRS426H7), expressed in S. cerevisiae EBY.VW4000 hexose transporter null mutant, whole-cell uptake
T2 sequence (A5ABZ0 1-527): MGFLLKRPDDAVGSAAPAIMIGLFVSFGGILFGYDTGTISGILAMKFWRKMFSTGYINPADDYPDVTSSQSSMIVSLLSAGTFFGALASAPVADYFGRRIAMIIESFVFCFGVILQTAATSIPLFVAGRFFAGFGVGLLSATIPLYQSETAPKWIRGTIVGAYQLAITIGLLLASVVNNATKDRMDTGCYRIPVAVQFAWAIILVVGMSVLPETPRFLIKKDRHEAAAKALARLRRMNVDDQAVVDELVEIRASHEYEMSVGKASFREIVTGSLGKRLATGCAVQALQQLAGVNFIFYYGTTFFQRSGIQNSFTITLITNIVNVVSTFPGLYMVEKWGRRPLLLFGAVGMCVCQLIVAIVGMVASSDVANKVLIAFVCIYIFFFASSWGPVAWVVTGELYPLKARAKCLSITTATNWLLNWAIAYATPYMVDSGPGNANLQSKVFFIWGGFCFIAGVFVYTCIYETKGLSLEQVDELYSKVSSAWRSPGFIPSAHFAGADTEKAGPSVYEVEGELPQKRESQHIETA
The experiment in a line: competition of […]-glucose uptake in yeast cells. Format: cell-based. The settings on record: read-out: % inhibition at 10 mM.

Inhibition data for four compounds are collected here from PMC4574540, “Aspergillus niger membrane-associated proteome analysis for the identification of glucose transporters” (Biotechnology for Biofuels, 2015).

Structures are written as SMILES.

As to `OC1OC[C@@H](O)[C@H](O)[C@H]1O` (some centres unmarked) [xylose], the inhibition at 10000 µM on MstG came out at 25%.

Take `OC[C@H]1OC(O)[C@@H](O)[C@@H](O)[C@@H]1O` (some centres unmarked) [mannose]: the inhibition at 10000 µM on MstH was 70%.

`OCC1(O)OC[C@@H](O)[C@@H](O)[C@@H]1O` (some centres unmarked) [fructose]: the inhibition at 10000 µM at MstG worked out at 29%; at MstH it was 50%.

For the compound `OC[C@H]1OC(O)[C@H](O)[C@@H](O)[C@H]1O` (some centres unmarked) [galactose], at MstG, the inhibition at 10000 µM is 39%.

The term inhibition denotes the share of the control response that was lost under treatment.
